Assay results as given in patent US20210378926A1, “A TOPICAL COMPOSITION” (priority 2018, published 2021).

System: S. hominis (ATCC 27844)
Assay: Malodor Assay (H2S production, lead acetate paper blackening)
Format: cell-based
Details: S. hominis culture in TSB with 0.1% L-cysteine-HCl, 96 well plate, 37° C. for about 16 hours; blackening of lead acetate paper scored 0 to 10 versus control (completely black); ingredient amounts in ppm as per Table 1
Description: The efficacy of different ingredients and combinations were tried using the Malodor Assay protocol with S. hominis (ATCC 27844) as described below:
The malodour assay was done in a 96 well plate (Nunc™, ThermoFisher). First, a lead acetate paper was prepared as follows. A Whatman™ (No. 1) filter paper (150 mm, Cat No. 1001-150) was taken and cut to match the top cross-sectional dimension of the 96 well plate. 1% Lead acetate (Hi Media, RM 757) solution was prepared in distilled water and the Whatman™ filter paper was soaked in the prepared lead acetate solution. The excess solution from the filter paper was drained and allowed to dry in a Laminar Air Flow for 1 hour. After drying, the filter paper was wrapped in an Aluminium foil and autoclaved at 121° C. for about 20 minutes. This lead acetate paper was used for the assay to capture the malodour generation at the later stage.
A TSB broth solution was prepared by adding 0.1% L-cysteine-HCl (Sigma, C1276) into TSB (Bacto, 211825, 30 g/L) and autoclaved. After that, the 96 well plate was taken followed by addition of 180 μL/well of the above prepared TSB solution into the wells. Then 20 μL/well of S. hominis culture ([…]) was added to the wells. Different ingredient and/or mix of ingredients as per following Table 1 were added into the wells along with a control (only distilled water and bacteria) as per the required concentration (as mentioned in Table 1). Finally, the lead acetate paper that was prepared previously was placed on the wells of the 96-well plate and the lid was closed. This plate was then incubated in an incubator (LABTOP, bacteriological incubator) at 37° C. for about 16 hours. The lid of the plate was opened after the incubation and observed the lead acetate paper for any visual change in colour. […] The results and the effect of actives were compared with the control (completely black).
The results of these experiments are expressed in terms of “% reduction” in H2S production which is determined from the blackening of the spot as explained above. Each spot with different test samples has been compared with the control (completely black) sample. It was then rated on a scale of 0 to 10 (10 being completely black as like control and 0 is no blackening). From the score the percentage reduction was evaluated e.g. if the blackening of any sample is as dark as control then the score given was “8-10” and accordingly % reduction is <20%.

Row | SMILES | % reduction in H2S production
1 | O=S(=O)([O-])[O-].[Cu+2] [J, CuSO4] | <20%
2 | C=CCc1ccc(O)c(-c2ccc(O)c(CC=C)c2)c1 [C, honokiol] | 20-40%
3 | O=S(=O)([O-])[O-].[Cu+2] [K, CuSO4] | 20-40%
4 | O=S(=O)([O-])[O-].[Fe+2] [G, FeSO4] | <20%
5 | C=CCc1ccc(O)c(-c2cc(CC=C)ccc2O)c1 [D, magnolol] | <20%
